Source: patent US20090023681A1, “METHOD OF USING BETA-GLUCAN FROM SCHIZOPHYLLUM COMMUNE” (priority 2007, published 2009)

Legend:
[1] = tested on: Staphylococcus aureus; test: Bacterial inhibition in mouse model, survival after S. aureus septic shock; assay type: in vivo, mice; conditions: 1 mg/mouse peritoneally 3 days and 1 day prior, 1×10^9 S. aureus intravenously, FIG. 6
Method: Skin is directly vulnerable to or may suffer from single infection with various bacteria and about 90% of atopic patients suffer from secondary infections with bacteria such as Staphylococcus spp. Therefore, there is a need for bacterial inhibition and amelioration of infectious diseases. Prior to the test of skin itching due to bacterial infections, this experiment was carried out to test whether beta-glucan has direct synergistic effects on antibacterial activity and antibiotic activity in vivo, using a mouse model.
Erythromycin was used as an antibiotic and Staphylococcus aureus, one of staphylococci as a major cause of skin infections, was used as the test bacteria. Each experimental group was composed of 6 to 7 mice per group. Experiments were carried out as follows.
1) 3 days and I day prior to bacterial challenge, 1 mg/mouse of saline, antibiotic, beta-glucan, or a beta-glucan/antibiotic mixture was peritoneally injected into mice.
2) 30 min prior to bacterial administration, 18 mg/kg of the antibiotic was subcutaneously injected into the mice.
3) Then, 1×10^9 of bacteria (S. aureus) were intravenously injected to induce septic shock.
4) Finally, a survival rate (%) of the animals was periodically confirmed every 12 hours.

[2] = tested on: hairless mice; test: Skin moisture loss (TEWL) recovery after acetone-induced skin barrier damage; assay type: in vivo
Method: This experiment was carried out to evaluate effects of beta-glucan on recovery of a skin barrier function loss due to long-term skin damage.
A barrier function of dorsal skin of experimental animals was damaged by periodic application of acetone to the dorsal parts of young hairless mice (10 weeks old) for 3 consecutive days three times a day. Trans-epidermal water loss (TEWL) was measured in the experimental animals. For only the mice having skin with more than 40 g/m′/hr of TEWL, a vehicle (propylene glycol:water=5:5) and a sample containing 0.2% beta-glucan of Example 1 were applied at a dose of 200 μl per 5 cm^2 of a skin area for 3 consecutive days three times a day, and TEWL was measured periodically.

[3] = tested on: human skin cells; test: Synthesis of filaggrin by skin cells, Western blotting; assay type: cell-based; conditions: beta-glucan 0.01%, 2 days treatment, FIG. 4
Method: In order to examine production of a natural moisturizing factor (NMF) having an important effect on skin moisturization, synthesis of filaggrin, which is a precursor of the natural moisturizing factor, was tested on human skin cells. First, skin cells were introduced into a culture flask and allowed to adhere to the bottom of the flask. Then, cells were cultured for 2 days by co-addition of 35-S-methionine upon treatment of a test material. After the cultivation was complete, the culture medium was removed and the cells were dissolved in phosphate buffered saline (PBS) containing 2% sodium dodecyl sulfate and 20 mM dithiothreitol (DTT). After the skin cells were cultured, treatment of the cells with the test material was carried out for 2 days. After the test material treatment was complete, the medium was removed, and only the cells were taken and disrupted using an ultrasonic disintegrator to thereby obtain only a protein. Using the thus-obtained protein, an amount of synthesized filaggrin was determined by Western blotting analysis. FIG. 4 is a graph showing an expression amount of filaggrin by Western blotting analysis. Clofibrate was used as a positive control, and beta-glucan was added to a concentration of 0.01% for the test.

[4] = at 48 hours after the bacterial infection
[5] = one week after the bacterial infection

In the case of “beta-1,6-branched-beta-1,3-glucan [beta-glucan]”, the survival rate [1, 4] is reported as 40%, the survival rate [1, 5] is reported as “all dead” and the “recovery from skin barrier damage compared to vehicle group” value ([2]; 0.2% beta-glucan of Example 1, 200 μl per 5 cm^2, 3 days three times a day, FIG. 5) is reported as “rapid recovery”. For the same compound, the “recovery of the trans-epidermal water loss” value ([2]; after 10 hours, 0.2% beta-glucan of Example 1 topical) was no less than 50% and the “synthesis of filaggrin in skin cells” value [3] was “significantly increased”.
`CC[C@H]1OC(=O)[C@H](C)[C@@H](O[C@H]2C[C@@](C)(OC)[C@@H](O)[C@H](C)O2)[C@H](C)[C@@H](O[C@@H]2O[C@H](C)C[C@H](N(C)C)[C@H]2O)[C@](C)(O)C[C@@H](C)C(=O)[C@H](C)[C@@H](O)[C@]1(C)O` [antibiotic, Erythromycin, reference compound] was tested, and the survival rate [1, 4] was “all killed” and the survival rate [1, 5] was “all dead”.
